Data: EP0100673A2, “A method of enhancing neurofiber regrowth” (THE RESEARCH FOUNDATION OF STATE UNIVERSITY OF NEW YORK, priority 1982, dated 1984)

Key:
[1] = test system: thrombokinase; details: cited from earlier work
[2] = test system: kaleikrein; details: cited from earlier work
[3] = target: plasmin (Homo sapiens, UniProt P00747); details: cited from earlier work
[4] = test system: cathespin B; details: in muscle, squid axoplasm and rat sciatic nerve; cited from earlier work
[5] = test system: cathespin L; details: in muscle, squid axoplasm and rat sciatic nerve; cited from earlier work
[6] = test system: sciatic nerve; experiment: Counts of myelinated and unmyelinated axons 5.0 mm distal to repair by electron microscopy; type: in vivo, rat; details: ultrastructural data, up to and including 6 months of treatment
Description: (§1) lwenty raty art anenthetizve with sel rompun (0.5 cc total volume). The right sciatic nerve is exposed and severed with microneuroscissors, and subsequently repaired microsurgically with 6-8 circumferential microsutures using 10-0 nylon. Immediately following surgery the treated animals receive 12 mg/kg Ac leupeptin in 5% DMSO (dimethylsulphoxide) as a bath on their sciatic nerve, 0.25 cc. total volume. Then the treated animals are injected intramuscularly in right hindlimb with 0.25 cc of a solution containing 12 mg/kg Ac leupeptin in 5% DMSO. Control animals receive the same surgical treatment, but the bath and intramuscular injection consist only of the solvent and 5% DMSO.
(§2) Thereafter, treated animals are injected twice weekly in the operated hindlimb with 12 mg/kg Ac leupeptin in 5% DMSO (0.25 cc total volume) for periods of 1 week, 1 month, two months, three months - and six months. Control animals are injected with 0.25 cc of 5% DMSO twice weekly in the operated hindlimb for the same time period.
(§3) Two treated and two control animals are assigned to each of the stated time periods.
(§4) A ten mm. portion of the repaired sciatic nerve is excised from each animal. This is fixed in 3.0% glutaraldehyde in 0.1 M sodium cacodylate, pH 7.3, overnight for electron microscopy. After post-fixation in 1.0% osmium tetroxide, ethanol dehydration and embedding in Polybed 812, both thick (1 micron) and thin (500 A°) transverse sections are cut on a ultramicrotome. Portions of the excised muscles receive similar preparation for electron microscopy.
(§5) Thick sections of the sciatic nerve are placed on microscope slots stained with toluidine blue and photographed at a constant magnification in the light microscope. Thin sections of both nerve and muscles are placed on 300 mesh copper grid calm, stained with uranyl acetate and lead citrate and photographed using a Hitachi HU-12 electron microscope.

[7] = test system: calcium activated neutral protease; details: in muscle, squid axoplasm and rat sciatic nerve; cited from earlier work
[8] = test system: neurofiber regrowth; experiment: Neurofiber regrowth after microsurgical neurorrhaphy (summary of tables I-V); type: in vivo, mammals
Description: as §1, §2, §3
All animals are sacrified by an overdose of pentobarbital, 1.0 cc total volume. […] Myofiber diameters are determined by photographing hematoxylin and eosin sections at a constant magnification in the light microscope. […]

[9] = test system: neurofiber regrowth; experiment: Effective dose based upon laboratory tests; type: in vivo, mammals; details: of mammalian weight, single or divided doses
Description: The exact dose to be administered is dependent upon the age, weight and particular conditions of the individual involved.

[10] = target: T1, papain (Carica papaya, UniProt P00784); details: cited from earlier work
T1 sequence (P00784 134-345): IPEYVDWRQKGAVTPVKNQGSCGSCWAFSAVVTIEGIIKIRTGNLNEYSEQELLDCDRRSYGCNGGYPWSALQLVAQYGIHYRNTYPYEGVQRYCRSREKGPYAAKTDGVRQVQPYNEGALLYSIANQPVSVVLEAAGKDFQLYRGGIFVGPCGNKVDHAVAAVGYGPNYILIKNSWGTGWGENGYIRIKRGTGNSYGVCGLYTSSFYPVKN

[11] = test system: chicken and rat skeletal and fetal heart preparations; details: cited from earlier work
[12] = test system: sciatic nerve; experiment: Counts of myelinated axons 5.0 mm proximal to repair by light microscopy; type: in vivo, rat; details: all time periods, treated nerves compared to control
Description: as §1, §2, §3, §4, §5

[13] = test system: sciatic nerve; experiment: Counts of myelinated axons 5.0 mm distal to repair by light microscopy; type: in vivo, rat; details: treated nerves vs. control nerve
Description: as §1, §2, §3, §4, §5

[14] = test system: chicken pectoralis muscle; details: in vivo; cited from earlier work

plasmin, sequence (P00747 97-810, species assumed): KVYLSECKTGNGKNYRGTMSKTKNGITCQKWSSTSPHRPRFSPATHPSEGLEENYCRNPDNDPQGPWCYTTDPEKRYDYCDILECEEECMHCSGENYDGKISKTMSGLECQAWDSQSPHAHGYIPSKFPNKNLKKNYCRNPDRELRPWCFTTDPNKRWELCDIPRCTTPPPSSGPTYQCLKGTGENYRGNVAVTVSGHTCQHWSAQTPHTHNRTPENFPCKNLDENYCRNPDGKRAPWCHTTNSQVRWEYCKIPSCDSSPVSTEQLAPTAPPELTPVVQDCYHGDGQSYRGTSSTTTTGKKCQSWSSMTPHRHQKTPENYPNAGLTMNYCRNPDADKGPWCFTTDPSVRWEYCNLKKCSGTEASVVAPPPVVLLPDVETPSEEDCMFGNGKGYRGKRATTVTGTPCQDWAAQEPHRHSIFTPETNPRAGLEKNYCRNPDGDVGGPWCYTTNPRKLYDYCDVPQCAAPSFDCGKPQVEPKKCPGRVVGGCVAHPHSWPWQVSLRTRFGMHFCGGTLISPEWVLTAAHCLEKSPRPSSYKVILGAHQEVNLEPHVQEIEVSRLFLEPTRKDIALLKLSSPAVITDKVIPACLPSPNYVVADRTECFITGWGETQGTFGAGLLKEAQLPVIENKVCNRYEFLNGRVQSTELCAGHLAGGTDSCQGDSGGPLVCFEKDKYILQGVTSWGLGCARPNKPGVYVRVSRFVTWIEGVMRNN

## CC(=O)N[C@@H](CC(C)C)C(=O)N[C@@H](CC(C)C)C(=O)N[C@H](C=O)CCCNC(=N)N [leupeptin]
[1]
  inhibition of thrombokinase: effective inhibitor
[2]
  inhibition of kaleikrein: effective inhibitor
[3]
  inhibition of plasmin: effective inhibitor
[4]
  inhibition of cathespin B: inhibited
[5]
  inhibition of cathespin L: inhibited
[6]
  numbers of both myelinated and unmyelinated axons distal to the repair site: increased numbers of both myelinated and unmyelinated axons
[7]
  inhibition of calcium activated neutral protease: inhibited
[8]
  neurofiber regrowth: significantly enhances neurofiber regrowth
[9]
  ED50: 8 to 75 mg/kg
[10]
  inhibition of papain: effective inhibitor
[11]
  protein degradation: decreased protein degradation
  protein synthesis: no effect on protein synthesis
[12]
  number of myelinated axons proximal to repair: significantly higher number of myelinated axons when compared to control
[13]
  Wallerian degeneration distal to repair: do not undergo as severe a form of Wallerian degeneration as the control nerve
[14]
  denervation induced atrophy: successfully used in vivo as an inhibitor of denervation induced atrophy
